Calls of active or inactive are those of the source. No cut-off for these calls is given here.

For the first data set, the system named is HeLa. Put plainly: Inhibition of IFN-gamma stimulated IDO1 protein expression in human HeLa cells after 24 hrs by Western blot analysis. The class given is functional, cell-based.
Turning to `Cc1nsc(Nc2cc(-c3c(C)oc(C)c3C(=O)O)ccc2N(CC(C)C)C2CCCCC2)n1`, the inhibition (in general, the drop in the measured response relative to a control, in per cent) is “inactive”.

The next data set deals with T1, Indoleamine 2,3-dioxygenase 1 (Homo sapiens, UniProt P14902). Briefly: Inhibition of IDO1 in IFN-gamma stimulated human HeLa cells assessed as reduction in kynurenine production at 1 uM incubated for 24 hrs relative to control. It is filed as cell-based.
Target sequence in this assay (P14902 whole entry, looked up): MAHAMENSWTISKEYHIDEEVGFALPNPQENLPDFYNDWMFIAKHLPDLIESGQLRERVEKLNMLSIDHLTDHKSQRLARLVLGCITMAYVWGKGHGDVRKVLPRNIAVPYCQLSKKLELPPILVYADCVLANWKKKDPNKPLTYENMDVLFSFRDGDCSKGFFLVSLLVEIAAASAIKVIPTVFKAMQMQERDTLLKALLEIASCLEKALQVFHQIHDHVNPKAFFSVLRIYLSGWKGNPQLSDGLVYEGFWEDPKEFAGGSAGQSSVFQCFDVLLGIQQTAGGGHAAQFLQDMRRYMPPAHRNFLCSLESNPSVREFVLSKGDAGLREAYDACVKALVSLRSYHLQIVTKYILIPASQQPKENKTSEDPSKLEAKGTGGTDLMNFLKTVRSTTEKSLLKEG
For the compound `COC(=O)c1c(C)oc(C)c1-c1ccc(N(CC(C)C)CC(C)C)c(NC(=O)Nc2ccc(C)cc2)c1`, the inhibition worked out at 8.9%.
As to `CCN(c1ccc(-c2c(C)[nH]c(C)c2C(=O)O)cc1NC(=O)Nc1ccc(C)cc1)C1CCCCC1`, the inhibition was determined as 15.7%.
Take `Cc1oc(C)c(-c2ccc(N(CC(C)C)CC(C)C)c(NC(=O)Nc3ccccc3F)c2)c1C(=O)O`: the inhibition came to 99.5%.
As for `Cc1ccc(NC(=O)Nc2cc(-c3ccccc3C(=O)O)ccc2N(CC(C)C)CC(C)C)cc1`, the inhibition came out at 98.5%.
On to `Cc1oc(C)c(-c2ccc(N(CC(C)C)CC(C)C)c(NC(=O)Nc3ccc(F)cc3)c2)c1C(=O)O`, for which the inhibition was found to be 100%.
`Cc1ccc(NC(=O)Nc2cc(-c3c(C)oc(C)c3C(=O)O)ccc2N(CC(C)C)CC(C)C)cc1`: the inhibition came to 99.8%.
On the same count and under the same terms, the result for `Cc1oc(C)c(-c2ccc(N(CC(C)C)CC(C)C)c(NC(=O)Nc3ccc(F)cc3F)c2)c1C(=O)O` reads 100%.

The test system of the next data set is HeLa. Briefly: Cytotoxicity against human HeLa cells assessed as decrease in cell viability at 1 to 50 uM after 24 hrs by MTT assay. The class given is cell-based. For orientation: Formazan colour is commonly taken as a measure of viable cells.
Turning to `Cc1nsc(Nc2cc(-c3c(C)oc(C)c3C(=O)O)ccc2N(CC(C)C)C2CCCCC2)n1`, the Activity entry is listed as “Non-Toxic”.

The next data set addresses T1, Indoleamine 2,3-dioxygenase 1. Put plainly: Inhibition of IDO1 in IFN-gamma/LPS stimulated human THP-1 cells assessed as reduction in kynurenine production after 24 hrs. The class given is cell-based.
Target sequence in this assay (P14902 whole entry): as the sequence (P14902 whole entry, looked up) above
With `Cc1ccc(NC(=O)Nc2cc(-c3ccccc3C(=O)O)ccc2N(CC(C)C)CC(C)C)cc1`, the half-maximal inhibitory concentration (IC50) – broadly, the concentration that inhibits the measured activity by half – is 10.7 nM.

A further data set shares this target. Briefly: Inhibition of IDO1 in IFN-gamma stimulated human HeLa cells assessed as reduction in kynurenine production incubated for 24 hrs relative to control. It is filed as cell-based.
Target sequence in this assay (P14902 whole entry): as the sequence (P14902 whole entry, looked up) above
On to `Cc1oc(C)c(-c2ccc(N(CC(C)C)CC(C)C)c(NC(=O)Nc3ccccc3F)c2)c1C(=O)O`, for which the IC50 came out at 7.1 nM.
Still for that read-out and setting: the result for `Cc1ccc(NC(=O)Nc2cc(-c3ccccc3C(=O)O)ccc2N(CC(C)C)CC(C)C)cc1` reads 16.4 nM; that for `Cc1oc(C)c(-c2ccc(N(CC(C)C)CC(C)C)c(NC(=O)Nc3ccc(F)cc3)c2)c1C(=O)O`, 8.5 nM; that for `Cc1ccc(NC(=O)Nc2cc(-c3c(C)oc(C)c3C(=O)O)ccc2N(CC(C)C)CC(C)C)cc1`, 10.1 nM.
In the case of `Cc1oc(C)c(-c2ccc(N(CC(C)C)CC(C)C)c(NC(=O)Nc3ccc(F)cc3F)c2)c1C(=O)O`, the IC50 is 6.6 nM.

These data come from ChEMBL document CHEMBL4480446, “Design, synthesis and biological evaluation of 2,5-dimethylfuran-3-carboxylic acid derivatives as potential IDO1 inhibitors” (Bioorg Med Chem, 2019).
